{
  "source": "patent US10925846B2",
  "about": "“Phenylketone carboxylate compounds and pharmaceutical compositions for the prevention and treatment of osteoporosis” (Liminal BioSciences Limited, priority 2014, dated 2021)",
  "key": {"[1]": {"tested_on": "LPS-stimulated RAW264.7 cells", "test": "IL-12 production in LPS-stimulated RAW264.7 cells (IL-12 ELISA)", "assay_type": "cell-based, murine", "description": "Accordingly, RAW264.7 cells are cultured with 100 ng/mL of LPS in presence or absence of the compound(s) for 21 h in a humidified atmosphere of 95% air-5% carbon dioxide at 37° C. IL-12 concentration in the culture medium is measured using the IL-12 ELISA according to the manufacturer (BD Biosciences) recommendations. […] Accordingly, an in vitro IL-12 production assay was used for screening potential inhibitors of osteoclastogenesis."}, "[2]": {"tested_on": "ovariectomized (OVX) rats", "test": "Ovariectomized-rat model of osteoporosis", "assay_type": "in vivo, Sprague Dawley rats", "source_text": "Although in comparison to humans, the skeletal mass of rats remains stable for a protracted period during their lifespan, rats can be ovariectomized to make them sex-hormone deficient, and to stimulate the accelerated loss of bone that occurs in women following menopause. Ovariectomy induced bone loss in the rat and postmenopausal bone loss share many similar characteristics. These include: increased rate of bone turnover with resorption exceeding formation; an initial rapid phase of bone loss followed by a much slower phase; greater loss of cancellous than cortical bone; decreased intestinal absorption of calcium; some protection against bone loss by obesity; and similar skeletal response to therapy with estrogen, tamoxifen, bisphosphonates, parathyroid hormone, calcitonin and exercise. These wide-ranging similarities are strong evidence that the ovariectomized rat bone loss model is suitable for studying problems that are relevant to postmenopausal bone loss.\nSprague Dawley rats (250 g) were ovariectomized (OVX) at day 0. Rats were treated by oral gavage with Compound I (10 mg/kg) from day 14 to day 68. Evaluation of different parameters (body weight, calcium loss, osteoclast markers (RANKL and TRAP mRNA expression), collagen content and histology was performed at day 68."}, "RAW264.7 cells": {"tested_on": "RAW264.7 cells", "conditions": "cited from earlier work"}, "[3]": {"conditions": "compound concentration 0.020 mM"}},
  "data": [
    {"smiles": "CCCCCCCCC(Oc1ccc(C(=O)CCCCCCC)cc1)C(=O)[O-].[Na+]", "note": "(racemic) [Compound I, Sodium (RS)-2-[4-Octanoylphenoxy]decanoate]", "values": [
      {"measurement": "IL-12", "setting": "[1]; compound concentration 0.0075 mM", "value": 112, "unit": "pg/mL"},
      {"measurement": "body weight / ovariectomized-induced obesity", "setting": "[2]; 10 mg/kg oral gavage day 14 to day 68, FIG. 1", "value": "reduced ovariectomized-induced obesity"},
      {"measurement": "calcium loss in urine", "setting": "[2]; 10 mg/kg oral gavage, day 28 to day 56, FIG. 2", "value": "reduced significantly"},
      {"measurement": "acid phosphatase activity in serum", "setting": "[2]; 10 mg/kg oral gavage, day 28 to day 56, FIG. 3", "value": "reduced"},
      {"measurement": "ratio of mRNA expression of RANKL/OPG in rat tibia", "setting": "[2]; 10 mg/kg oral gavage, day 68, FIG. 4", "value": "decreased"},
      {"measurement": "collagen content in the metaphyse of the femur", "setting": "[2]; 10 mg/kg oral gavage, day 68, FIG. 5", "value": "increased"},
      {"measurement": "bone loss in the metaphysis portion of the femur (histology)", "setting": "[2]; 10 mg/kg oral gavage, day 68, FIGS. 6 and 7", "value": "reduced bone loss"}
    ]},
    {"smiles": "CCCCCCCCCC(=O)O", "note": "[capric acid]", "values": [
      {"measurement": "IL-12 production", "setting": "RAW264.7 cells; LPS-stimulated RAW264.7 cells", "value": "increases"},
      {"measurement": "LPS-upregulated iNOS mRNA levels and nitric oxide (NO) production", "setting": "RAW264.7 cells; LPS", "value": "inhibited"},
      {"measurement": "phosphatase (TRAP)-positive cells (osteoclast differentiation marker)", "setting": "RAW264.7 cells; RAW264.7 cells", "value": "reduction"},
      {"measurement": "monocyte chemoattractant protein-1 (MCP-1) mRNA expression", "setting": "RAW264.7 cells", "value": "inhibited"}
    ]},
    {"smiles": "CCCCCCCCC(Oc1ccc(C(=O)CCC)cc1)C(=O)[O-].[Na+]", "note": "(racemic) [Compound V, Sodium (RS)-2-[4-Butyrylphenoxy]decanoate]", "values": [
      {"measurement": "melting point", "value": "262 to 278", "unit": "°C"},
      {"measurement": "IL-12", "setting": "[1]; compound concentration 0.040 mM", "value": 73.32, "unit": "pg/mL"}
    ]},
    {"smiles": "CCCCCCCCC(Oc1ccc(C(=O)CCCCC)cc1)C(=O)[O-].[Na+]", "note": "(racemic) [Compound VI, Sodium (RS)-2-[4-Hexanoylphenoxy]decanoate]", "values": [
      {"measurement": "melting point", "value": "275 to 280", "unit": "°C"},
      {"measurement": "IL-12", "setting": "[1]; [3]", "value": 53.5, "unit": "pg/mL"}
    ]},
    {"smiles": "CCCCCCCCC(Cc1ccc(C(=O)CCCCCCC)cc1)C(=O)[O-].[Na+]", "note": "(racemic) [Compound VII, Sodium (RS)-2-[4-Octanoylbenzyl]decanoate]", "values": [
      {"measurement": "IL-12", "setting": "[1]; compound concentration 0.012 mM", "value": 8, "unit": "pg/mL"}
    ]},
    {"smiles": "CCCCCCCC(=O)c1ccc(OC(CCCCCC)C(=O)[O-])cc1.[Na+]", "note": "(racemic) [Compound IV, Sodium (RS)-2-[4-Octanoylphenoxy]octanoate]", "values": [
      {"measurement": "melting point", "value": "165 to 170", "unit": "°C"},
      {"measurement": "IL-12", "setting": "[1]; [3]", "value": 12.13, "unit": "pg/mL"}
    ]},
    {"smiles": "CCCCCCCC(=O)c1cccc2c1CC(C(=O)[O-])C2.[Na+]", "note": "(racemic) [Compound III, Sodium (RS)-4-Octanoylindane-2-carboxylate]", "values": [
      {"measurement": "IL-12", "setting": "[1]; compound concentration 0.1 mM", "value": 24.95, "unit": "pg/mL"}
    ]}
  ]
}
